In patent publication US4539329A, “7'-Trifluoromethyl-spiro[imidazolidine-4,3'-indoline]-2,2',5-triones as aldose reductase inhibitors” (Imperial Chemical Industries, plc, priority 1982, dated 1985):

Molecular target: T1, aldose reductase (Bos taurus, UniProt P16116)
T1 construct: purified aldose reductase is isolated in known manner from bovine lenses; from tissue; host or cells: bovine lens
Assay: in vitro inhibition of purified aldose reductase from bovine lenses (reduction of glucose to sorbitol, spectrophotometric)
Assay type: biochemical
Conditions: aldose reductase preparation obtained from bovine lenses; read-out: concentration producing a 50% reduction in the conversion of glucose to sorbitol
Experimental: Thus, purified aldose reductase is isolated in known manner from bovine lenses. The percentage inhibition of this enzyme's ability in vitro to reduce aldoses to polyhydric alcohols, and particularly to reduce glucose to sorbitol, caused by a test compound is then determined using standard spectrophotometric methods. In this test the compounds of formula I in general show significant inhibition of the enzyme aldose reductase at a concentration of about 10^-8 M.

Question: For `O=C1NC(=O)C2(N1)C(=O)N(Cc1ccc(Br)cc1F)c1c(C(F)(F)F)cccc12` (racemic) [A, 1'-(4-bromo-2-fluorobenzyl)-7'-(trifluoromethyl)-spiro[imidazolidine-4,3'-indoline]-2,2',5-trione], which IC50 is on record?
Answer: 10.5 nM
